From US11389415B2, “Methods of regulating cannabinoid receptor activity-related disorders and diseases” (The United States of America as represented by the …, priority 2012, dated 2022)

Experiments:
HepG2 cells [1] = experiment: [3H]-Thymidine incorporation assay in HepG2 cells; assay type: cell-based, human; conditions: for % Change in HepG2 cells ([3H]-thymidine incorporation): 1 μM; for effect of pretreatment on (R,R′)-Fen-stimulated mitogenesis: 1 h pretreatment then (R,R′)-Fen 24 h; for effect on cell proliferation: compound alone; for effect of pretreatment on anti-proliferative effect of (R,R′)-MNF: 1 h pretreatment then (R,R′)-MNF 24 h
Method: (§1) Maintenance and Treatment of Cell Lines. Human HepG2 hepatocarcinoma cells and human U87MG glioma cells (ATCC, Manassas, Va.) were maintained in EMEM medium supplemented with 1% L-glutamine, 1% sodium pyruvate, 1% penicillin/streptomycin, and 10% FBS (Hyclone, Logan, Utah). The human 1321N1 astrocytoma cells (European Collection of Cell Cultures, Sigma-Aldrich) were cultured in Dulbecco's modified Eagle's medium supplemented with 10% FBS and penicillin/streptomycin. All cell lines were cultured at 37° C. in 5% CO2, and the medium was replaced every 2-3 days.
(§2) Cells were seeded in 12-well plates at approximately 50,000 cells/well and incubated at 37° C. After 24 hours, the wells were rinsed with PBS and replaced with serum-free medium containing the appropriate concentration of the test compounds. After another 24-hour incubation at 37° C., 1 μCi of [^3H]-thymidine was added to each well and incubated at 37° C. for 16 hours. [^3H]-Thymidine incorporation into DNA was monitored after the cells were washed twice with PBS and then lysed in 600 μL of 0.1N NaOH for 30 minutes with shaking. The lysate was then mixed with 3 mL of liquid scintillation cocktail (Beckman Coulter, Inc., Brea, Calif.), and radioactivity was measured by liquid scintillation counting using Beckman Coulter LS6000IC Scintillation Counter. Data are shown as CPM incorporated compared to the control cells.

1321N1 cells = experiment: Mitogenesis / [3H]-thymidine incorporation in 1321N1 cells; assay type: cell-based, human; conditions: for effect on proliferation / [3H]-thymidine incorporation: compound alone
Method: as §1
as §2, with “[^3H]-Thymidine Incorporation Assay. Cells” for “Cells”

U87MG cells = experiment: [3H]-Thymidine incorporation in U87MG cells; assay type: cell-based, human
Method: as §1, §2

HepG2 cells [2] = experiment: cAMP accumulation in HepG2 cells; assay type: cell-based, human; conditions: β-agonists at 10 μM
Method: cAMP Accumulation. HepG2 cells were seeded in 96-well plates and grown to confluency. […] The levels of cAMP accumulated in cells were determined and normalized to the amount of protein per well.

Akt and ERK1/2 = experiment: phosphorylation of Akt and ERK1/2 in HepG2 cells (Western blot); assay type: cell-based, human; conditions: 1 μM, 5, 10 and 30 minutes
Method: Western Blotting. Cells were lysed with RIPA buffer containing EGTA and EDTA (Boston BioProducts, Ashland, Mass.). The lysis buffer was mixed with a protease inhibitor cocktail (Sigma-Aldrich). Protein concentrations were measured using the bicinchoninic acid reagent (Thermo-Pierce Biotechnology, Inc., Rockford, Ill.). […] Western blots were performed according to standard methods. The visualization of immunoreactive bands was performed using the ECL Plus Western Blotting Detection System (GE Healthcare, NJ) and their quantification was done by volume densitometry using Image J software and normalization to β-actin. […] The antibodies were used at a dilution recommended by the manufacturer.

rat C6 glioma cells = experiment: 3H-Thymidine incorporation in rat C6 glioma cells; assay type: cell-based; conditions: for effect of preincubation on antiproliferative effect of MNF: C6 cells, ICI-118,551 3 nM, AM251 0.5 and 1 μM, AM630 0.5 μM, 30 minutes, then 20 nM MNF
Method: Cell culture. The rat-derived C6 glioma cell line was obtained from the American Type Culture Collection (Manassas, Va.). The cells were routinely maintained in DMEM supplemented with L-glutamine, 1% penicillin/streptomycin solution, and 10% FBS in a humidified CO2 incubator at 37° C.
3H-Thymidine incorporation. C6 glioma cells were seeded in 12-well plates at ˜5×10^4 cells/well and incubated for 24 hours followed by a second 24-hour incubation with various concentrations of MNF. Radiolabeled thymidine (10 Ci/mmol; PerkinElmer Life and Analytical Sciences, Waltham, Mass.) was added at 1 μCi per well for 16 hours and its incorporation into DNA was then measured. Each treatment group was performed in triplicate and three independent studies were carried out.

GPR55 = GPR55 (Homo sapiens, UniProt Q9Y2T6); experiment: Cellular uptake of TocriFluor T1117 in HepG2 cells; assay type: cell-based; design: host or cells: HepG2 hepatocarcinoma cells; conditions: for effect of pretreatment on T1117 incorporation: HepG2, AM630 1 μM, WIN 55,212-2 1 μM (1 hour), AM251 1 μM (30 minutes)
Chain of GPR55 (Q9Y2T6 whole entry): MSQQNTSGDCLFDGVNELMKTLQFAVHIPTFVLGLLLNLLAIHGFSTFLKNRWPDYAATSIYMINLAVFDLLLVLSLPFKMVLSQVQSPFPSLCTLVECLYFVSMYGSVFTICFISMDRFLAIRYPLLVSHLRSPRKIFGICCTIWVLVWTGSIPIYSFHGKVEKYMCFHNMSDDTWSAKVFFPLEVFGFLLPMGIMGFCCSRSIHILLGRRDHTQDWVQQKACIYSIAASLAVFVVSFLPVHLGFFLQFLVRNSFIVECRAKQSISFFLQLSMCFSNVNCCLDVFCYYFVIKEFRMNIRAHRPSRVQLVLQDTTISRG

SMILES: C[C@H](Cc1ccc(N)cc1)NC[C@H](O)c1cc(O)cc(O)c1 [(R,R′)-aminoFen, (R,R′)-4′-aminofenoterol]
- % Change in HepG2 cells ([3H]-thymidine incorporation) (HepG2 cells [1]; 24 h): (R,R′): 54.37%
- fold more active than (R,R′)-Fen (HepG2 cells [1]; [3H]-thymidine incorporation, HepG2): 3 fold
- effect on proliferation / [3H]-thymidine incorporation (1321N1 cells): markedly lower

SMILES: CC(C)NC[C@H](O)c1ccc(O)c(O)c1 [(R)-isoproterenol, reference compound]
- EC50 (HepG2 cells [1]; Homo sapiens, HepG2 cells, serum-free medium, 24 h, read-out: IC50/EC50 (μM): EC50 (ED50) for increase in [3H]-thymidine incorporation): 0.4 ± 0.08 µM
- effect on proliferation / [3H]-thymidine incorporation (1321N1 cells): reduced proliferation in 1321N1 cells
- effect on cellular proliferation (U87MG cells; compound alone): had no effect on U87MG cells
- cAMP production (HepG2 cells [2]): Neither (R)-isoproterenol nor (R,R′)-Fen, at 10 μM, elicited an increase in cAMP production
- Akt and ERK activation (Akt and ERK1/2): induced a time-dependent increase in Akt and ERK activation
- inhibition at 0.02 µM (rat C6 glioma cells; Rattus norvegicus, 20 nM, 24 hours, read-out: inhibition of C6 cell growth / reduction in mitogenesis): 10 to 15%

SMILES: COc1ccc(C[C@H](C)NC[C@H](O)c2cc(O)cc(O)c2)c2ccccc12 [(R,S′)-MNF, 4-methoxy-1-naphthylfenoterol]
- % Change in HepG2 cells ([3H]-thymidine incorporation) (HepG2 cells [1]; 24 h): −68.1%

SMILES: C[C@H](Cc1cccc2ccccc12)NC[C@H](O)c1cc(O)cc(O)c1 [(R,R′)-1-naphthylFen, (R,R′)-1-naphthylfenoterol]
- % Change in HepG2 cells ([3H]-thymidine incorporation) (HepG2 cells [1]; 24 h): (R,R): −67.52%
- IC50 (HepG2 cells [1]; Homo sapiens, HepG2, read-out: IC50/EC50 (μM): IC50 for inhibition of [3H]-thymidine incorporation): 0.21 ± 0.07 µM

SMILES: Cc1c(C(=O)c2cccc3ccccc23)c2cccc3c2n1[C@H](CN1CCOCC1)CO3 [WIN 55,212-2, reference compound]
- effect of pretreatment on (R,R′)-Fen-stimulated mitogenesis (HepG2 cells [1]; HepG2 cells): canceled out the growth-promoting action of fenoterol
- effect on cell proliferation (HepG2 cells [1]; HepG2 cells): reduced cell proliferation
- effect of pretreatment on T1117 incorporation (GPR55): markedly increased the rate of T1117 accumulation

SMILES: Cc1c(C(=O)NN2CCCCC2)nn(-c2ccc(Cl)cc2Cl)c1-c1ccc(I)cc1 [AM251, 1-(2,4-dichlorophenyl)-5-(4-iodophenyl)-4-methyl-N-(1-piperidyl)pyrazole-3-carboxamide, reference compound]
- effect of pretreatment on (R,R′)-Fen-stimulated mitogenesis (HepG2 cells [1]; HepG2 cells): had no impact on the mitogenic responses of (R,R′)-Fen
- effect of pretreatment on anti-proliferative effect of (R,R′)-MNF (HepG2 cells [1]; HepG2 cells): completely inhibited the anti-proliferative effects of (R,R′)-MNF
- effect of pretreatment on anti-proliferative action of (R,R′)-MNF (U87MG cells): partially blocked
- effect of preincubation on antiproliferative effect of MNF (rat C6 glioma cells): rendered C6 cells refractory to the growth-inhibitory effect of MNF

SMILES: CN(C)c1ccc2c(-c3ccc(C(=O)NCCCc4ccccc4)cc3C(=O)[O-])c3ccc(N(C)C)cc3[o+]c2c1 [TAMRA-PPA, 5′-TAMRA-3-phenylpropan-1-amine]
- cellular incorporation of fluorescence (GPR55; HepG2 cells, up to 1 hour): no significant incorporation of fluorescence

SMILES: Cc1ccc(OCC(O)C(C)NC(C)C)c2c1CCC2 (stereo not drawn) [ICI 118,551, 3-(isopropylamino)-1-[(7-methyl-4-indanyl)oxy]butan-2-ol, reference compound]
- effect of pretreatment on (R,R′)-Fen-stimulated mitogenesis (HepG2 cells [1]; HepG2 cells): significantly blocked (R,R′)-Fen-stimulated mitogenesis
- effect of pretreatment on anti-proliferative effect of (R,R′)-MNF (HepG2 cells [1]; HepG2 cells): refractory to ICI 118,551 pretreatment
- effect on cell proliferation (HepG2 cells [1]; HepG2 cells): showed no effect on cell proliferation
- effect of pretreatment on (R,R′)-Fen signaling (1321N1 cells): blocked (R,R′)-Fen signaling in 1321N1 cells
- effect of pretreatment on anti-proliferative action of (R,R′)-MNF (U87MG cells): inactive against the anti-proliferative action of (R,R′)-MNF in U87MG cells
- effect of preincubation on antiproliferative effect of MNF (rat C6 glioma cells): did not block the antiproliferative effect of MNF

SMILES: C[C@H](Cc1ccc(O)cc1)NC[C@@H](O)c1cc(O)cc(O)c1 [(S,R′)-Fen, fenoterol]
- % Change in HepG2 cells ([3H]-thymidine incorporation) (HepG2 cells [1]; 24 h): 28.7%

SMILES: COc1ccc(C(=O)c2c(C)n(CCN3CCOCC3)c3cc(I)ccc23)cc1 [AM630, 1-[2-(morpholin-4-yl)ethyl]-2-methyl-3-(4-methoxybenzoyl)-6-iodoindole]
- effect of pretreatment on (R,R′)-Fen-stimulated mitogenesis (HepG2 cells [1]; HepG2 cells): had no impact on the mitogenic responses of (R,R′)-Fen
- effect of pretreatment on anti-proliferative effect of (R,R′)-MNF (HepG2 cells [1]; HepG2 cells): completely inhibited the anti-proliferative effects of (R,R′)-MNF
- effect of pretreatment on anti-proliferative action of (R,R′)-MNF (U87MG cells): partially blocked
- effect of preincubation on antiproliferative effect of MNF (rat C6 glioma cells): had minimal effect against MNF signaling
- effect of pretreatment on T1117 incorporation (GPR55): largely inactive

SMILES: Cc1c(C(=O)NN2CCCCC2)nn(-c2ccc(Cl)cc2Cl)c1-c1ccc(-c2ccc(CCCNC(=O)c3ccc4c(c3)C(=O)OC43c4ccc(N(C)C)cc4Oc4cc(N(C)C)ccc43)cc2)cc1 [T1117]
- time of half-maximum incorporation of T1117 (GPR55; HepG2 cells transfected with control siRNA): ~15 min
- EC50 (GPR55; serum-depleted cells, 37° C., 2.5-100 nM, read-out: T1117 concentration of half-maximal cellular incorporation): ~8 nM

SMILES: CCCCCCC(C)(C)c1ccc([C@@H]2C[C@H](O)CC[C@H]2CCCO)c(O)c1 [CP 55,940]
- reduction of T1117 uptake (GPR55; HepG2, 0.25 μM, 30-minutes pretreatment): 2.5 fold

SMILES: C[C@@H](Cc1ccc(O)cc1)NC[C@H](O)c1cc(O)cc(O)c1 [(R,S′)-Fen, fenoterol]
- % Change in HepG2 cells ([3H]-thymidine incorporation) (HepG2 cells [1]; 24 h): 19.1%
